Where “and” joins values, the source holds several entries; their conditions need not be identical. Identical values can stand only once.
How the values were obtained:
rat TRPA1 = target: T1, rat TRPA1 (Rattus norvegicus, UniProt Q6RI86); experiment: Thermo-TRP assay: [Ca2+]i elevation (Fluo-4) in HEK-293 cells transfected with TRPA1; type: cell-based; conditions: for TRPA1 Efficacy (% AITC 100 μM): agonist effect as % of AITC 100 μM, HEK-293 rat TRPA1; for IC50: antagonist/desensitizing, added 5 min before AITC 100 μM, read-out: IC50 TRPA1; for EC50: half-maximal increase in [Ca2+]i, read-out: TRPA1 Potency EC50
T1 construct: expressed in transfected cells
Experimental: The compounds were tested on HEK-293 cells either stably transfected with rat TRPA1, TRPV2, TRPV3, TRPV4, TRPM8 or human TRPV1 or not-transfected, by performing a continuous monitoring of the intracellular calcium ([Ca^2+]i) elevation during the experiments, following the protocol already described. […] Cell fluorescence before and after the addition of various concentrations of tested compounds was measured, normalizing the effects against the response to ionomycin (IM, 4 μM). The effect on [Ca^2+]i in non-transfected HEK-293 cells were used as the baseline and subtracted from the values obtained from the transfected ones. The efficacy of the agonists was determined by normalizing their effect to the maximum Ca^2+ influx effect on [Ca^2+]i observed with application of 4μM ionomycin. The effects of TRPA1 agonists are expressed as a percentage of the effect obtained with 100 μM allyl isothiocyanate (AITC). In the TRPV3 assay, rat TRPV3-expressing HEK-293 cells were first sensitized with the structurally unrelated agonist 2-aminoethoxydiphenyl borate (100 μM). For the TRPM8, the experiments were carried out at 22 °C. The potency (EC50 values) is determined as the concentration required to produce half-maximal increases in [Ca^2+]i. […] A dose-response curve fitting (sigmoidal dose-response variable slope) and parameter estimation were performed with Graph-Pad Prism 8 (GraphPad Software Inc., San Diego, CA, USA). All determinations were performed at least in triplicate.

rat TRPV3 = target: T2, rat TRPV3 (Rattus norvegicus, UniProt Q4QYD9); experiment: Thermo-TRP assay: [Ca2+]i elevation (Fluo-4) in HEK-293 cells transfected with TRPV3; type: cell-based; conditions: for TRPV3 Efficacy (% Ionomycin 4 μM): agonist effect as % of ionomycin 4 μM, cells sensitized with 2-aminoethoxydiphenyl borate 100 μM; for IC50: antagonist/desensitizing, vs Thymol 100 μM; for EC50: half-maximal increase in [Ca2+]i, read-out: TRPV3 Potency EC50
T2 construct: expressed in transfected cells
T2 sequence (Q4QYD9 1-791): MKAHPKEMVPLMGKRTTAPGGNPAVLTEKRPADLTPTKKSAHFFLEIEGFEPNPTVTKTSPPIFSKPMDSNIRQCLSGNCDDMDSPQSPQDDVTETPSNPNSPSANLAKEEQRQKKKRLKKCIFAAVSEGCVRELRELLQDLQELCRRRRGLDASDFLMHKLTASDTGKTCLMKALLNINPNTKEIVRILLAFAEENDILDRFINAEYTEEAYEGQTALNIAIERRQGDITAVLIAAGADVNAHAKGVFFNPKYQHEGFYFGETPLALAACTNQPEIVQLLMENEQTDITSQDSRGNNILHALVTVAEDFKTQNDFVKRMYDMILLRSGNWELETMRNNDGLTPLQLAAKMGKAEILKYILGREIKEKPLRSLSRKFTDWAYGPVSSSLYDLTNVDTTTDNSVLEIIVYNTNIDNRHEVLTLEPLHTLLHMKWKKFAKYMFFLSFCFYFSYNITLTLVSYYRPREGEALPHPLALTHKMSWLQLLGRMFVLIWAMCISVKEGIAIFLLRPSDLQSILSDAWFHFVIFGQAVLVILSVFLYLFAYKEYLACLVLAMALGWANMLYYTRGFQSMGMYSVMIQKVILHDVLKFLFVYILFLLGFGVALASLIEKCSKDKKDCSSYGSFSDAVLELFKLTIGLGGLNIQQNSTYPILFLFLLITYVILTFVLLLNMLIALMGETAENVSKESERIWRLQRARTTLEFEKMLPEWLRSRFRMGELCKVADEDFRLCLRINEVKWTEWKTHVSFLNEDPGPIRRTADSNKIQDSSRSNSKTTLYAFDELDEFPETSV
Experimental: The compounds were tested on HEK-293 cells either stably transfected with rat TRPA1, TRPV2, TRPV3, TRPV4, TRPM8 or human TRPV1 or not-transfected, by performing a continuous monitoring of the intracellular calcium ([Ca^2+]i) elevation during the experiments, following the protocol already described. On the day of the experiment, the cells were loaded for 1 h in the dark at room temperature with the fluorescent probe Fluo-4 AM (4 μM in DMSO containing 0.02% Pluronic F-127). The cells were rinsed, resuspended in Tyrode’s solution (145 mM NaCl, 2.5 mM KCl, 1.5 mM CaCl2, 1.2 mM MgCl2, 10 mM D-glucose, and 10 mM HEPES, pH 7.4), and transferred to a quartz cuvette of a spectrofluorimeter (PerkinElmer LS50B; λEX = 488 nm, λEM = 516 nm) equipped with a PTP-1 fluorescence Peltier system (PerkinElmer Life and Analytical Sciences, Waltham, MA, USA) under continuous stirring. Cell fluorescence before and after the addition of various concentrations of tested compounds was measured, normalizing the effects against the response to ionomycin (IM, 4 μM). The effect on [Ca^2+]i in non-transfected HEK-293 cells were used as the baseline and subtracted from the values obtained from the transfected ones. The efficacy of the agonists was determined by normalizing their effect to the maximum Ca^2+ influx effect on [Ca^2+]i observed with application of 4μM ionomycin. The effects of TRPA1 agonists are expressed as a percentage of the effect obtained with 100 μM allyl isothiocyanate (AITC). In the TRPV3 assay, rat TRPV3-expressing HEK-293 cells were first sensitized with the structurally unrelated agonist 2-aminoethoxydiphenyl borate (100 μM). For the TRPM8, the experiments were carried out at 22 °C. The potency (EC50 values) is determined as the concentration required to produce half-maximal increases in [Ca^2+]i. Antagonist/desensitizing behavior is evaluated against the agonist of the TRP analyzed by adding the compounds directly in the quartz cuvette 5 min before stimulation of cells with the agonist (allylisothiocyanate (100 μM) for TRPA1, capsaicin (0.1 μM) for TRPV1, cannabidiol (2 μM) for TRPV2, thymol (100 μM) for TRPV3, GSK1016790A (10 nM) for TRPV4, and icilin (0.25 μM) for TRPM8). The IC50 value is expressed as the concentration exerting a half-maximal inhibition of the agonist effect, taking as 100% the effect on [Ca^2+]i exerted by the agonist alone. A dose-response curve fitting (sigmoidal dose-response variable slope) and parameter estimation were performed with Graph-Pad Prism 8 (GraphPad Software Inc., San Diego, CA, USA). All determinations were performed at least in triplicate.

T1 sequence (Q6RI86 whole entry): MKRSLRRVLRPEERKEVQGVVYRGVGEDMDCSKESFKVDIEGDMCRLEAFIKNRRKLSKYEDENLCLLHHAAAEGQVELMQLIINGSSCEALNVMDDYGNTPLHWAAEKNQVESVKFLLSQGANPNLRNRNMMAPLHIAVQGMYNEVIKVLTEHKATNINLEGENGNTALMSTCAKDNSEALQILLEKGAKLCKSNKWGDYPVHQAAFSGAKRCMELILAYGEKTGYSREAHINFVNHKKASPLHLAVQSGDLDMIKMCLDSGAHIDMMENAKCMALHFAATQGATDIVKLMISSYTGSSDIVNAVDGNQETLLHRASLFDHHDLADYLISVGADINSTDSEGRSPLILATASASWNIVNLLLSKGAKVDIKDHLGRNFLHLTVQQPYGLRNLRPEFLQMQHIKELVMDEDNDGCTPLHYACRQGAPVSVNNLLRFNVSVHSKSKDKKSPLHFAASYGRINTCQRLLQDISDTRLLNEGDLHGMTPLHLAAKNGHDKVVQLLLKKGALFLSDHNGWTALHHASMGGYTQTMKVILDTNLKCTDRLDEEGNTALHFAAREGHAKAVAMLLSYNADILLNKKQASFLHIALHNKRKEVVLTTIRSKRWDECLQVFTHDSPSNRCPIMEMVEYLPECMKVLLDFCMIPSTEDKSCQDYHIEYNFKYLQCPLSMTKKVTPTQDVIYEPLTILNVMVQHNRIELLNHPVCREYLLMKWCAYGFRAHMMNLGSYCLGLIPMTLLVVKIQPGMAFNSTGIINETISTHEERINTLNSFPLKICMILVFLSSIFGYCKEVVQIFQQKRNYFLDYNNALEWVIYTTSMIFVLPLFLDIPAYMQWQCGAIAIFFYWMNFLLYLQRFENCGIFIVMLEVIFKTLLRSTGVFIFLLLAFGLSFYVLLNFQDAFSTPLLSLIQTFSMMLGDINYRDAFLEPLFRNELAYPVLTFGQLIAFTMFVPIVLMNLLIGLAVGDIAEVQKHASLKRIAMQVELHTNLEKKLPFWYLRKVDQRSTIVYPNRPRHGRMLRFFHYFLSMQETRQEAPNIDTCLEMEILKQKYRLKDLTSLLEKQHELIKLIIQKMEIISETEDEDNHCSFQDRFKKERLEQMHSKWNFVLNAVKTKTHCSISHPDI

Structure (SMILES) | TRPA1 Efficacy (% AITC 100 μM) (rat TRPA1) | IC50 (rat TRPA1) | EC50 (rat TRPA1) | TRPV3 Efficacy (% Ionomycin 4 μM) (rat TRPV3) | IC50 (rat TRPV3) | EC50 (rat TRPV3)
C=C(C)[C@@H]1CCC(C)=C[C@H]1C1=C(O)C(=O)C(C(C)(C)CCCCCC)=CC1=O [5b] | 120.4 ± 3.0% | 3500 ± 200 nM | 5200 ± 800 nM | 64.3 ± 0.9% | 760 ± 10 nM | 460 ± 20 nM
CCCCCCC(C)(C)C1=CC2=C(C(=O)C1=O)[C@@H]1CC(C)=CC[C@H]1C(C)(C)O2 [6b] | 147.3 ± 7.3% | 1800 ± 300 nM | 4400 ± 1250 nM | 66.8 ± 2.2% | 720 ± 80 nM | 500 ± 100 nM
CCCCCCC(C)(C)C1=CC(=O)C(C/C=C(\C)CCC=C(C)C)=C(O)C1=O [7b, p-DMHCBGQ] | 114.2 ± 4.1% | 1100 ± 100 nM | 1100 ± 200 nM | 51.1 ± 1.0% | < 10000 nM and 8600 nM | 1500 ± 200 nM
CCCCCCC(C)(C)C1=CC(=O)C2=C(OC(C)(CCC=C(C)C)C=C2)C1=O (stereo not drawn) [8b] | 111.2 ± 2.1% | 350 ± 20 nM | 190 ± 30 nM | 37.55 ± 0.85% | 38300 ± 2000 nM | 13600 ± 1800 nM
